For four compounds, IC50 results are on record in ChEMBL document CHEMBL5725313, “Highly selective c-Met inhibitors as anticancer agents” (2017).

The target in the assay is Hepatocyte growth factor receptor (Homo sapiens, UniProt P08581). Kind of assay: c-Met In Vitro Kinase Assay: Optiplate-384 well plate (PerKinElmer), kinase buffer (50 mM Hepes pH7.5, 25 mM NaCl, 2 mM DTT, 0.01% Tween 20, 5 mM Mg2+, 0.5 mM Mn2+), c-Met kinase (1038-1346AA, prepared in-house), c-Met substrate (PerKinElmer, #TRF0127-M), Lance@Eu-W 1024-anti-phosphotyrosine (PT66), (PerKinElmer, #AD0068), ATP (Invitrogen), DMSO (Sigma, #34869), water (Millipore, model Milli-Q). A mixture of c-Met kinase (final concentration 12.5 nM) and test compound (final DMSO is 0.5%) is pre-incubated at 30° C. for 20 min. Then ATP (final concentration 2.5 uM) and kinase substrate (final concentration 50 nM) are added. The resulting mixture is kept at 30° C. for 1 hr, followed by addition of the c-Met antibody. After 1 hr, the plate is read at 615 nm and 665 nm. The ratio of absorption values at 665 nm and 615 nm is calculated and used for the data analysis as follows. This assay has a Minimum Significant Ratio (MSA) of 2-3.
Hepatocyte growth factor receptor, sequence (P08581 whole entry): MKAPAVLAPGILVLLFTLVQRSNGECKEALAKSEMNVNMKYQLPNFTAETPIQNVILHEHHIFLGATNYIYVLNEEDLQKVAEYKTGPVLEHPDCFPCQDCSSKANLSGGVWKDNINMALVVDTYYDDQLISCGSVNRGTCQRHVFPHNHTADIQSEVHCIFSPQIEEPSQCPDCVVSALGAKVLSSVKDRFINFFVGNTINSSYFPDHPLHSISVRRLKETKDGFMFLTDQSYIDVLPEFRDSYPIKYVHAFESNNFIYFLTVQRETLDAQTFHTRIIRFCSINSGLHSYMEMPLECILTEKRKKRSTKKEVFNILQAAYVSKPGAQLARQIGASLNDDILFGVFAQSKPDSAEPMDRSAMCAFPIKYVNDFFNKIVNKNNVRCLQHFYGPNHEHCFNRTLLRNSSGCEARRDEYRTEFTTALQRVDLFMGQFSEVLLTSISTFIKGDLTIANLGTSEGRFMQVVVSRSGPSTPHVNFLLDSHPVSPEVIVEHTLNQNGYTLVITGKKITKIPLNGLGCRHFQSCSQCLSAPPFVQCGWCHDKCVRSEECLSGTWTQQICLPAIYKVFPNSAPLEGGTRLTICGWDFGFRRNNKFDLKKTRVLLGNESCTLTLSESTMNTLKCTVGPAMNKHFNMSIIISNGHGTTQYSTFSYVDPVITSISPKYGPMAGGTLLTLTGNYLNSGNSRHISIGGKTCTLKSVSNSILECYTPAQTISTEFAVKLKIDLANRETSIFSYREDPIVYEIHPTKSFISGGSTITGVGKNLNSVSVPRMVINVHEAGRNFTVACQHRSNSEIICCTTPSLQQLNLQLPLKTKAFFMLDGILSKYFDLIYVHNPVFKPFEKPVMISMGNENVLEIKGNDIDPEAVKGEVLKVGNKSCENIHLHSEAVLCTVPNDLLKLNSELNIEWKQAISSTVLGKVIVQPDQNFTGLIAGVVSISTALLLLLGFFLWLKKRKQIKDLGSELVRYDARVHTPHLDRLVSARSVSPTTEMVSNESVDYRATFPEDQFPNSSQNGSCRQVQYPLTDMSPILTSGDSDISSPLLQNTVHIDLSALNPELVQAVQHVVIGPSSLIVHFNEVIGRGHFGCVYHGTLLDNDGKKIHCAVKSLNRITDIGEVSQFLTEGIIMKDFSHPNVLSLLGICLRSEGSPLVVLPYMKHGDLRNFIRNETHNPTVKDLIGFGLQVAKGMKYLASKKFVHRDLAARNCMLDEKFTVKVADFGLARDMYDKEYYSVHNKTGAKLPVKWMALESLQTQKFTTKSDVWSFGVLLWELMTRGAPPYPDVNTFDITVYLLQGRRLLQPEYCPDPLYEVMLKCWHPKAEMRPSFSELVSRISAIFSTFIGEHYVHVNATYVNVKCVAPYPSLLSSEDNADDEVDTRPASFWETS

As for `Cn1cc2c(F)c(C(F)(F)c3nnc4ccc(-c5cncc(F)c5)nn34)ccc2n1`, the IC50 was 0.261 µM.
As for `Cc1cncc(-c2ccc3nnc(C(F)(F)c4ccc5nn(C)cc5c4F)n3n2)c1`, the IC50 is 0.119 µM.
Turning to `Cn1cc2c(F)c(C(F)(F)c3nnc4ccc(-c5cncc(Cl)c5)nn34)ccc2n1`, the IC50 is 0.194 µM.
As for `CNC(=O)c1ccc(-c2ccc3nnc(C(F)(F)c4ccc5nn(C)cc5c4F)n3n2)cn1`, the IC50 was 0.149 µM.

As usually defined, the IC50 is the concentration needed to halve the response being measured.
